One compound from patent US8927761B2, “Form of hexyl-5-aminolevulinate hydrochloride and methods of using the same” (Photocure ASA, priority 2012, dated 2015) can be followed below.

The data set is described as follows: Hot stage microscopy: conversion between solid forms on heating. The note with it: solid state; conversion to the new Form shown by observed change in crystal morphology. Type of data set: physicochemical. As for the experimental part: Hot stage microscopy was performed using a Linkam hot stage (model FTIR 600) mounted on a Leica DM LP microscope. Sample was observed using a 20× objective. Sample was placed on a coverslip, and a second coverslip was then placed over the sample. Each sample was visually observed as the stage was heated. The hot stage was calibrated using USP melting point standards.
Characteristic data for new Form C was obtained with X-ray powder diffraction (XRPD), differential scanning calorimetry (DSC), hot stage microscopy, infrared spectroscopy (IR), Raman spectroscopy, and solid state ^13C cross polarization magic angle spinning nuclear magnetic resonance spectroscopy. The new Form is a crystalline material that melts near 99° C. […] The particle morphology is observed as rays, lathe, and/or blades. The new Form is the thermodynamically stable form above 65° C.

Turning to `CCCCCCOC(=O)CCC(=O)CN.Cl` [Form C, hexyl 5-aminolevulinate hydrochloride], the “temperature range in which the new Form is the thermodynamically stable form” value is “above 65 °C”.
